# Experimental data published in patent publication US20180371550A1, “LOSS OF TRANSCRIPTIONAL FIDELITY LEADS TO IMMUNOTHERAPY RESISTANCE IN CANCERS” (Children's Hospital Medical Center, priority 2015, published 2018).
# How the values were obtained:
# [1] = tested on: B16/F10 mouse melanoma cells; assay: Testing NK-mediated tumor cell killing in vivo (lung seeding of B16-OVA cells); design: species or system C57BL6 mice; conditions: FIG. 15J
# Protocol: C57Bl/6 mice were injected with control or flavopiridol (100 μM) treated 2×10^5 B16-OVA cells into tail veins. One hour later, the lungs were harvested, digested in liberase and the frequency of tumor cells was assessed using quantitative PCR (Shehata et al., 2015). mRNA levels for OVA (B16-OVA) were assessed and normalized to GAPDH. […] Six mice for each group were used. The protocol and use of mice were performed with the approval of the Cincinnati Children's Institutional Animal Care and Use Committee.
# [2] = tested on: Cal51 and T47D cells; assay: Immunoblot of RNAP II and histone marks in cells treated with flavopiridol; assay type: cell-based; conditions: increasing sublethal doses of flavopiridol for 48 hours, FIG. 15G
# Protocol: (§1) Total proteins were extracted with RIPA buffer (Santa Cruz Biotechnology, sc-24948), and 15 μg protein from each sample was run in a 4-18% SDS polyacrylamide gel (Bio-Rad), and transferred onto polyvinylidene difluoride membranes. The membranes were blocked in 5% dry milk in tris-buffered saline—Tween 20 for 1 hour. Blocked membranes were incubated overnight with primary antibodies against pSer5-RNA polymerase II (1:1000, Active motif), pSer2-RNA polymerase II (1:1000, Active motif), RNA polymerase II (1:1000, Active motif), SETD2 (1:1000, abcam), CyclinT1 (1:1000, Santa Cruz), H3K36me3 (1:5000, abcam), H3K27me3 (1:5000, Active motif), Pan-acetyl-H3 (1:5000, Cell Signaling), Histone H3 (1:5000, Cell Signaling), pMAPK (1;1000, Cell Signaling), MAPK (1;1000, Cell Signaling), pAKT (1:1000, Cell Signaling), STAT1 (1:1000, Cell Signaling), pSTAT1 (1:1000, Cell Signaling), NF-κB (1:1000, Cell Signaling), pNF-κB (1:1000), Cleaved-PARP(1:1000, Cell Signaling), Caspase-3 (1;1000, Cell Signaling), β-Actin (1;1000, Cell Signaling), GAPDH (1:1000, Cell Signaling) in 5% bovine serum albumin. After washing and incubating with the appropriate secondary antibody (anti-rabbit IgG or anti-Rat IgG (1:5000, Cell signaling)), protein signals were detected with enhanced chemiluminescence (Millipore).
# [3] = tested on: Cal51 cells; assay: STAT1 activation after IFN-α stimulation in flavopiridol-treated cells; assay type: cell-based; conditions: flavopiridol for 48 hours, then IFN-α for 30 minutes, FIG. 15H
# Protocol: as §1, with “(Millipore). […]” for “(Millipore).”
# [4] = tested on: Cal51 cells; assay: Cytotoxicity assay: relative viability after FasL stimulation with flavopiridol pre-treatment; assay type: cell-based; conditions: 24 hours FasL, 48 hour pre-treatment with 100 μM flavopiridol, FIG. 15I
# Protocol: Equal number of cells was seeded into the wells of 96-well culture plates in their corresponding medium and incubated overnight in a 5% CO2 humidified incubator. Cells were then treated with different concentrations of hhis6FasL (0.1 ng/ml-1000 ng/ml) in the presence of 10 μg/ml anti-His antibody (Cell Signaling) for 24 hours. Dead cells were removed by washing with PBS buffer and the attached cells were fixed and stained with crystal violet solution [20% methanol, 0.5% crystal violet (Sigma) in 1× phosphate-buffered saline (PBS)] for 30 min. Excess stain was removed by gently rinsing the plates in tap water, and the plates were dried at room temperature. Crystal violet crystals were redissolved in Triton (Amresco), and cell density was determined by measuring the absorbance at 570 nm in a microplate reader (Bio-Tek Instruments).
structure (smiles),measurement,setting,value
CN1CC[C@H](c2c(O)cc(O)c3c(=O)cc(-c4ccccc4Cl)oc23)[C@H](O)C1 [flavopiridol],"lung seeding of B16 cells (OVA mRNA normalized to GAPDH, qPCR)","[1]; B16-OVA cells treated with flavopiridol (100 μM), tail vein injection into C57Bl/6 mice, lungs after 1 hour, vs control cells",significantly increased the ability of B16 cells for lung seeding
same,lung seeding of B16 cells in NK-depleted mice,"[1]; as E4, mice pre-injected with anti-asialo GM1 (NK depletion)",the effect was diminished
same,RNAP II and histone marks (epigenetic and transcriptional defects),[2],widespread epigenetic and transcriptional defects
same,response to pro-inflammatory stimuli (STAT1 activation),[3],resistance to pro-inflammatory stimuli
same,relative viability after FasL challenge,[4],resistance to pro-inflammatory stimuli and FasL challenge
